Where “and” joins values, the source holds several entries; their conditions need not be identical. Identical values can stand only once. Marks after values point to notes of the source that are not given here.
Assay: Repeated standardized T1-weighted MRI: signal units (SU) in ROIs of CSF, venous space and brain tissue after intrathecal gadobutrol, iNPH versus reference patients (Tables 2-4, FIG. 14b, 16);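 as to Max Increase in SU of T1 signal, numerical change: Gadobutrol 0.5 mL of 1.0 mmol/mL given intrathecally into CSF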;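 as to Max Increase in SU of T1 signal, percentage change: Gadobutrol 0.5 mL of 1.0 mmol/mL given intrathecally into CSF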
Assay type: in vivo, human
Details: for Max Increase in SU of T1 signal, numerical change / Max Increase in SU of T1 signal, percentage change: one patient per row; for Average indication signal within brain tissue ROI: one individual, FIG. 14b
Protocol: The different features of Aspect 2 are based on novel in-vivo observations in humans. […] In the following paragraphs, these novel observations in humans are commented on in more detail. In these studies, the MRI contrast agent gadobutrol served as indicator fluid and MRI SUs were indication signals. MRI T1 weighted signal units were measured when gadobutrol was present within CSF after having been administered to the CSF compartment, and were compared with MR images having identical sequence parameter settings and with no gadobutrol present in CSF. […] With a MW of 605 Da, gadobutrol is a rather large molecule in comparison to the MW of water (H2O) molecule, which is 18 Da. Clearance of gadobutrol is then indicative of clearance of other substances with similar properties.
We explored both movement of the contrast agent within, to, and from the cranio-spinal cavity, including CSF, brain and spinal cord compartment, and from the cranio-spinal cavity to extra-cranial LNs. With gadobutrol present within CSF, blood level concentrations of contrast agents were determined at various time point. The repeated MRI acquisitions made it possible to create clearance curves for one or more pixels, defined by ROIs. ROIs were placed within CSF compartments, brain and spinal cord tissue compartments, and extracranial LN tissue compartments. By means of MRI, we could create graphic curves illustrating clearance of substances (clearance illustrating curves) for defined ROIs built up of a defied number of pixels for each individual. For details of said clearance curves, see FIG. 7. The establishment of clearance curves was dependent on repeated MRI acquisitions over a long period.
Using MRI SUs, we created clearance illustrating curves, see FIG. 7, for the individual patients as well as for groups of individuals. Tables 2-4 illustrate various examples of parameter values of the clearance illustrating curves.
Table 2, as discussed with FIG. 2, illustrates how maximum increase in SUs varies between individuals and patient groups. Tables 3 and 4 compare such clearance curve parameters from two patient groups, namely iNPH and reference (i.e. control) patients, illustrating inter-individual differences and differences between patient groups. These patient groups represent no limitation of the invention as it may be used in various patient groups such as Alzheimer's and dementia in general, brain tumor (e.g. astrocytoma), multiple sclerosis and inflammatory brain disease, stroke (brain infarction or bleeds), sleep disturbances, neurodegenerative disease, CSF circulation disorders, traumatic brain injury, neurometabolic diseases, glaucoma, chronic headache and migraine, and in assessment of ageing in general.
Even though perfect match of ROIs of repeated images may be difficult to obtain, the second aspect of the invention is facilitated by that image acquisition parameters at repeated MRI acquisitions are kept fixed and thus standardized. […] Further, to make best possible alignments of pixels, methods for alignment of repeated MRI acquisitions need to be implemented. Methods for alignment of repeated MRI images belong to prior art. Aids to improve alignment may incorporate landmark locations such as the cranial vault, pineal gland, and ventricular system.
Each image acquisition lasted 6 minutes and 29 seconds.

[1] = CSF space: Lateral Ventricle, iNPH
[2] = CSF space: Precentral sulcus, Reference
[3] = CSF space: Precentral sulcus, iNPH
[4] = CSF space: Sylvian fissure, Reference
[5] = CSF space: Sylvian fissure, iNPH
[6] = Central venous space: Sagittal sinus/confluence, Reference
[7] = Central venous space: Sagittal sinus/confluence, iNPH
[8] = Inferior frontal gyrus (IFG), REF
[9] = Inferior frontal gyrus (IFG), iNPH

Clearance coefficient (SU/min) [1]: −0.05 ± 0.04 SU/min
Clearance time [1]: 1115.1 ± 46.3 min
Enhancement coefficient (SU/min) [1]: 0.41 SU/min
Max increase (SU) [1]: 168.5 ± 99.8^b SU
Max reduction (SU) [1]: −57.3 ± 48.9 SU
Time to peak [1]: 843.4 ± 560.2 min
Clearance coefficient (SU/min) (CSF space: Pons, Reference): −0.25 ± 0.08 SU/min
Clearance time (CSF space: Pons, Reference): 1261.5 ± 137.0 min
Enhancement coefficient (SU/min) (CSF space: Pons, Reference): 10.8 SU/min
Max reduction (SU) (CSF space: Pons, Reference): −313.3 ± 105.3 SU
Time to peak (CSF space: Pons, Reference): 159.8 ± 148.9 min
Clearance coefficient (SU/min) (CSF space: Pons, iNPH): −0.15 ± 0.08^b SU/min
Clearance time (CSF space: Pons, iNPH): 1207.9 ± 114.8 min
Enhancement coefficient (SU/min) (CSF space: Pons, iNPH): 2.4 SU/min
Max reduction (SU) (CSF space: Pons, iNPH): −177.9 ± 95.5^b SU
Time to peak (CSF space: Pons, iNPH): 230.9 ± 98.4 min
Enhancement coefficient (SU/min) [2]: 0.29 SU/min
Max increase (SU) [2]: 87.8 ± 99.3 SU
Time to peak [2]: 475.0 ± 601.9 min
Enhancement coefficient (SU/min) [3]: 0.10 SU/min
Max increase (SU) [3]: 131.1 ± 94.1 SU
Time to peak (min) [3]: 1254.7 ± 483.8^b min
Clearance coefficient (SU/min) [4]: −0.12 ± 0.06 SU/min
Clearance time [4]: 1162.6 ± 78.1 min
Enhancement coefficient (SU/min) [4]: 0.9 SU/min
Max increase (SU) [4]: 204.2 ± 104.4 SU
Max reduction (SU) [4]: −133.0 ± 68.4 SU
Time to peak [4]: 258.6 ± 114.8 min
Clearance coefficient (SU/min) [5]: −0.06 ± 0.05^a SU/min
Clearance time [5]: 1123.7 ± 41.1 min
Enhancement coefficient (SU/min) [5]: 0.57 SU/min
Max increase (SU) [5]: 226.2 ± 100.2 SU
Max reduction (SU) [5]: −68.0 ± 51.2^a SU
Time to peak (min) [5]: 689.0 ± 536.3^a min
Clearance coefficient (SU/min) [6]: −0.008 ± 0.003 SU/min
Clearance time [6]: 1247.3 ± 175.9 min
Enhancement coefficient (SU/min) [6]: 0.41 SU/min
Max increase (SU) [6]: 7.4 ± 9.6 SU
Max reduction (SU) [6]: −9.5 ± 3.9 SU
Time to peak [6]: 524.4 ± 591.3 min
Clearance coefficient (SU/min) [7]: −0.01 ± 0.006 SU/min
Clearance time [7]: 1287.4 ± 150.9 min
Enhancement coefficient (SU/min) [7]: 0.16 SU/min
Max increase (SU) [7]: 8.1 ± 8.0 SU
Max reduction (SU) [7]: −12.1 ± 6.7 SU
Time to peak [7]: 350.2 ± 457.3 min
SU within ROI (entorhinal cortex, FIG. 16h, intrathecal gadobutrol present for 24 hours (46 SU without)): 136 SU
Average indication signal within brain tissue ROI (3 hours after intrathecal gadobutrol (80 SU without gadobutrol)): 83 SU
Average indication signal within brain tissue ROI (9 hours after intrathecal gadobutrol): 103 SU
Average indication signal within brain tissue ROI (24 hours after intrathecal gadobutrol): 107 SU
SU within ROI (subcortical area of entorhinal cortex, FIG. 16f, intrathecal gadobutrol present for 24 hours (109 SU without)): 180 SU
SMILES: O=C([O-])CN1CCN(CC(=O)[O-])CCN([C@H](CO)[C@H](O)CO)CCN(CC(=O)[O-])CC1.[Gd+3] (racemic) [gadobutrol]
Max Increase in SU of T1 signal, numerical change (Frontal horn, REF): 23 SU and 7 (7%) SU and 4 SU and 4 (4%) SU and 3 (3%) SU and 9 SU and 17 SU
Max Increase in SU of T1 signal, percentage change (Frontal horn, REF): 37% and 7 (7%) and 3% and 4 (4%) and 3 (3%) and 8% and 21%
Max Increase in SU of T1 signal, numerical change (Frontal horn, iNPH): 13 SU and 103 SU and 35 SU and 76 SU and 92 SU and 50 SU and 2 (2%) SU and 49 SU and 53 SU and 42 SU and 8 SU and 19 SU and 21 SU
Max Increase in SU of T1 signal, percentage change (Frontal horn, iNPH): 15% (2×) and 204% and 40% and 159% and 131% and 98% and 2 (2%) and 126% and 110% and 70% and 22% and 23%
Max Increase in SU of T1 signal, numerical change [8]: 68 SU and 5 (5%) SU and 24 SU and 13 SU and 23 SU and 37 SU and 18 SU
Max Increase in SU of T1 signal, percentage change [8]: 80% and 5 (5%) and 27% and 14% and 25% and 41% and 21%
Max Increase in SU of T1 signal, numerical change [9]: 70 SU and 56 SU and 32 SU and 51 SU and 74 SU and 21 SU and 24 SU and 36 SU and 59 SU and 10 SU (2×) and −1 (−1%) SU and 25 SU
Max Increase in SU of T1 signal, percentage change [9]: 83% and 68% (2×) and 38% and 63% and 95% and 23% and 31% and 46% and 12% and −1 (−1%) and 11% and 28%
Max Increase in SU of T1 signal, numerical change (Precentral gyrus, REF): 10 SU and 1 (1%) SU and 8 SU and 2 (2%) SU and 6 SU and 34 SU and 3 SU
Max Increase in SU of T1 signal, percentage change (Precentral gyrus, REF): 12% and 1 (1%) and 9% and 2 (2%) and 7% and 41% and 4%
Max Increase in SU of T1 signal, numerical change (Precentral gyrus, iNPH): 28 SU and 7 SU and 7 (7%) SU and 2 (2%) SU (2×) and 18 SU and 5 (5%) SU and 8 SU and 2 SU and 6 SU (2×) and 4 SU and 3 SU
Max Increase in SU of T1 signal, percentage change (Precentral gyrus, iNPH): 32% and 8% and 7 (7%) and 2 (2%) (2×) and 22% and 5 (5%) and 10% and 3% and 7% (2×) and 5% and 4%
Max Increase in SU of T1 signal, numerical change (Thalamus, REF): 23 SU and 4 (4%) SU and 3 SU and 2 (2%) SU and 13 (13%) SU (2×) and 8 SU
Max Increase in SU of T1 signal, percentage change (Thalamus, REF): 26% and 4 (4%) and 2% and 2 (2%) and 13 (13%) (2×) and 9%
Max Increase in SU of T1 signal, numerical change (Thalamus, iNPH): 16 SU and 23 SU and 9 SU (2×) and 14 SU and 25 SU and 4 (4%) SU and 10 SU and 19 SU and 7 SU and 2 (2%) SU and 12 SU (2×)
Max Increase in SU of T1 signal, percentage change (Thalamus, iNPH): 18% and 24% and 11% (2×) and 17% and 28% and 4 (4%) and 12% and 21% and 8% and 2 (2%) and 14% and 13%
Max Increase in SU of T1 signal, numerical change (brain tissue Pons, REF): 20 SU and 5 (5%) SU (2×) and 3 (3%) SU and 9 (9%) SU and 7 (7%) SU and 9 SU
Max Increase in SU of T1 signal, percentage change (brain tissue Pons, REF): 21% and 5 (5%) (2×) and 3 (3%) and 9 (9%) and 7 (7%) and 10%
Max Increase in SU of T1 signal, numerical change (brain tissue Pons, iNPH): 17 (17%) SU and 24 (24%) SU and 15 SU and 21 SU and 14 (14%) SU and 4 (4%) SU (2×) and 9 SU (2×) and 18 (18%) SU and 3 (3%) SU and 2 (2%) SU and 6 (6%) SU
Max Increase in SU of T1 signal, percentage change (brain tissue Pons, iNPH): 17 (17%) and 24 (24%) and 16% and 24% and 14 (14%) and 4 (4%) (2×) and 10% (2×) and 18 (18%) and 3 (3%) and 2 (2%) and 6 (6%)
